Experimental findings from patent publication US5545639A, “Method of inhibiting transformed cells” (The United States of America as represented by the …, priority 1994, dated 1996) are described below.

pIC50: −log10 of the molar value.

Common to all, as to experiment: Dose response of growth, tumor cell line
Holding throughout (type): cell-based

The test system of assay [1] is DLD-A. The note with it: Homo sapiens, colon cancer. The protocol:
(§1) Indeed, 70% of the cell lines were shown not only to experience precluded growth, but cell death, when exposed to less then 100 μM of the active ingredient.

Assay [2] deals with HT29. To be noted: Homo sapiens, HT-29, HT29, colon cancer. The method, then:
as §1

The test system of assay [3] is KM12. To be noted: Homo sapiens, KM12, colon cancer. The method, then: as §1
Assay [4] has as its system M19-MEL. To be noted: Homo sapiens, melanoma. The method, then: as §1
The subject of assay [5] is SF-539. To be noted: Homo sapiens, SF-539, CNS cancer. The method, then:
as §1

Assay [6] deals with SNB-75. The note with it: Homo sapiens, SNB-75, CNS cancer. The protocol:
as §1

The mark [7] stands for this setting: read-out: 50% Growth (Relative to Control).
Where [8] appears, read: read-out: No Growth (Relative to Control).

For `ClCc1ccc2ccc3ccc(CCl)nc3c2n1` [2,9-bis(chloromethyl)-1,10-phenanthroline], the pIC50 in assay [1] (setting [7]) was 5.83; in assay [2] (setting [7]) it was 5.88; in assay [3] (setting [7]) it was 6.12; in assay [4] (setting [7]), 5.88; in assay [5] (setting [7]), 5.52; in assay [6] (setting [7]), 5.76. For the same compound, the CC50 in assay [1] (read-out: 50% Loss (50% kill)) stood at 5.72 µM; in assay [2] (read-out: 50% Loss (50% kill)) it was 5.48 µM; in assay [3] (read-out: 50% Loss (50% kill)) it was 6.43 µM; in assay [4] (read-out: 50% Loss (50% kill)), 5.28 µM; in assay [5] (read-out: 50% Loss (50% kill)), 41.8 µM; in assay [6] (read-out: 50% Loss (50% kill)), 15.5 µM. Besides, the IC100 came to 2.91 µM in assay [1] (setting [8]); 2.68 µM in assay [2] (setting [8]); 2.39 µM in assay [3] (setting [8]); 2.63 µM in assay [4] (setting [8]); 11.2 µM in assay [5] (setting [8]); 4.53 µM in assay [6] (setting [8]).
